Data published in patent US6884774B2, “Cyclic hexapeptide derivatives” (Fujisawa Pharmaceutical Co. Ltd., priority 2000, dated 2005).
Starred links: 1 amine or outer side, 2 acyl side, 3 side chain; linkers in the order of their positions; H or OH if unused. Positions of bridges follow the written chain, without caps; N, C: chain ends. Non-standard residues stand in square brackets, D forms with d. Residues, ends and D or L forms follow the SMILES beside them. *: point of attachment. X2 = C[C@H]1CC[C@@H](N2CCN(c3ccc(-c4nnc(-c5ccc(C(=O)*)cc5)s4)cc3)CC2)CC1; hTyr(3R-OH,3'-OSO3H) = N[C@H](C(=O)O)[C@H](O)Cc1ccc(O)c(OS(=O)(=O)O)c1; X3 = COCCCCCOC1CCN(c2ccc(-c3nn4cc(-c5ccc(C(=O)*)cc5)nc4s3)cc2)CC1; Orn(3R-OH,Nδ-CH(CH2OH)2) = N[C@H](C(=O)O)[C@H](O)CCNC(CO)CO; X4 = COCCCCOc1ccc(-c2nn3cc(-c4ccc(C(=O)*)cc4)nc3s2)cc1; Orn(4R-OH) = O=C([C@H](C[C@@H](O)CN[*:3])N[*:1])[*:2]; X1 = COCCCCCCOc1ccc(-c2cc(-c3ccc(C(=O)*)cc3)no2)cc1; Pro(3S-OH,4S-Me) = C[C@H]1CN[C@H](C(=O)O)[C@H]1O; Hyp = O=C(O)[C@@H]1C[C@@H](O)CN1

test system: Candida albicans FP-633; assay type: cell-based; details: FP-633, 24 h, pH 7.3
Procedure: In vitro antimicrobial activity of the object compound of Examples 4, 9, 25 and 30 disclosed later was determined by MICs in mouse serum as described below. The MICs in mouse serum were determined by the microdilution method using ICR mouse serum buffered with 20 mM HEPES buffer (pH 7.3) as a test medium. Inoculum suspension of 10^6 cells/ml were prepared by a hemocytometric procedure and diluted to obtain an inoculum size of approximately 1.0×10^3 cells/ml. Microplates were incubated at 37° C. for 24 hours in 5% CO2. The MICs were defined as the lowest concentrations at which no visible growth was observed.

MIC, <0.3 µg/mL:
COCCCCCCOc1ccc(-c2cc(-c3ccc(C(=O)N[C@H]4C[C@@H](O)CNC(=O)[C@@H]5[C@@H](O)[C@@H](C)CN5C(=O)[C@H]([C@H](O)CCNC(CO)CO)NC(=O)[C@H]([C@H](O)Cc5ccc(O)c(OS(=O)(=O)O)c5)NC(=O)[C@@H]5C[C@@H](O)CN5C(=O)[C@H]([C@@H](C)O)NC4=O)cc3)no2)cc1 [Example 25] (X1-[Orn(4R-OH)]T[Hyp][hTyr(3R-OH,3'-OSO3H)][Orn(3R-OH,Nδ-CH(CH2OH)2)][Pro(3S-OH,4S-Me)]; lactam 1-C)
C[C@@H](O)[C@@H]1NC(=O)[C@@H](NC(=O)c2ccc(-c3nnc(-c4ccc(N5CCN([C@H]6CC[C@@H](C)CC6)CC5)cc4)s3)cc2)C[C@@H](O)CNC(=O)[C@@H]2[C@@H](O)[C@@H](C)CN2C(=O)[C@H]([C@H](O)CCNC(CO)CO)NC(=O)[C@H]([C@H](O)Cc2ccc(O)c(OS(=O)(=O)O)c2)NC(=O)[C@@H]2C[C@@H](O)CN2C1=O [Example 9] (X2-[Orn(4R-OH)]T[Hyp][hTyr(3R-OH,3'-OSO3H)][Orn(3R-OH,Nδ-CH(CH2OH)2)][Pro(3S-OH,4S-Me)]; lactam 1-C)
COCCCCOc1ccc(-c2nn3cc(-c4ccc(C(=O)N[C@H]5C[C@@H](O)CNC(=O)[C@@H]6[C@@H](O)[C@@H](C)CN6C(=O)[C@H]([C@H](O)CCNC(CO)CO)NC(=O)[C@H]([C@H](O)Cc6ccc(O)c(OS(=O)(=O)O)c6)NC(=O)[C@@H]6C[C@@H](O)CN6C(=O)[C@H]([C@@H](C)O)NC5=O)cc4)nc3s2)cc1 [Example 30] (X4-[Orn(4R-OH)]T[Hyp][hTyr(3R-OH,3'-OSO3H)][Orn(3R-OH,Nδ-CH(CH2OH)2)][Pro(3S-OH,4S-Me)]; lactam 1-C)
COCCCCCOC1CCN(c2ccc(-c3nn4cc(-c5ccc(C(=O)N[C@H]6C[C@@H](O)CNC(=O)[C@@H]7[C@@H](O)[C@@H](C)CN7C(=O)[C@H]([C@H](O)CCNC(CO)CO)NC(=O)[C@H]([C@H](O)Cc7ccc(O)c(OS(=O)(=O)O)c7)NC(=O)[C@@H]7C[C@@H](O)CN7C(=O)[C@H]([C@@H](C)O)NC6=O)cc5)nc4s3)cc2)CC1 [Example 4] (X3-[Orn(4R-OH)]T[Hyp][hTyr(3R-OH,3'-OSO3H)][Orn(3R-OH,Nδ-CH(CH2OH)2)][Pro(3S-OH,4S-Me)]; lactam 1-C)
